For the experiment, the target named is T1, recombinant human KLK5 (Homo sapiens, UniProt Q9Y337).
T1 construct: purchased Novoprotein or R&D Systems C415 or 1108-SE
T1 sequence (Q9Y337 23-293): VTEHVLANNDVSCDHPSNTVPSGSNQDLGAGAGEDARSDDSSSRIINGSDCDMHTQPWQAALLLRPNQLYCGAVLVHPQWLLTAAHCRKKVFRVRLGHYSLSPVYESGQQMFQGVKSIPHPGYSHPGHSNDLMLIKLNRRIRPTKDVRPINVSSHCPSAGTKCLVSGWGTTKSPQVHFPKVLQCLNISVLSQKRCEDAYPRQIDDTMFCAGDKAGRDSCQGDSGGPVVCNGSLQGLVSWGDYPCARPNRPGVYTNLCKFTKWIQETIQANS
The experiment is described as follows: Kallikrein (KLK) 5 enzymatic assay (Boc-VPR-AMC fluorogenic substrate). Format: biochemical. The following applies: recombinant human KLK5 0.1 μg/well, Boc-VPR-AMC 100 μM, pH 7.5, room temperature, 1% DMSO; tested a minimum of three times. The procedure, abridged: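 Recombinant human KLK5 (0.1 μg/well) was preincubated with compound at room temperature in 0.1 M NaH2PO4, pH 7.5, 1% DMSO, then started with 100 μM Boc-VPR-AMC. The rate was followed at 380/460 nm, and IC50 came from percent inhibition relative to enzyme alone, with at least three runs.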

This is an account of results in patent publication US20240239752A1, “BICYCLIC HETEROAROMATIC INHIBITORS OF KLK5” (BioCryst Pharmaceuticals, Inc., priority 2021, published 2024).

pIC50: −log10 of the molar value.

The term pIC50 denotes the negative decadic logarithm of the IC50, by convention in mol/L. For the molecule `Nc1nccc2ccc(-c3ccc4nn(C5CN(CCO)C5)c(COc5ccccc5CC(=O)O)c4c3)cc12` [Compound 119h, 2-(2-((5-(1-aminoisoquinolin-7-yl)-2-(1-(2-hydroxyethyl)azetidin-3-yl)-2H-indazol-3-yl)methoxy)phenyl)acetic acid], the negative logarithm of the IC50 (pIC50) was 5.00 to 6.00.
Consider `COCCN1CC(n2nc3ccc(-c4cccc5c(N)nccc45)cc3c2COc2ccccc2CC(=O)O)C1` [Compound 120c, 2-(2-((5-(1-aminoisoquinolin-5-yl)-2-(1-(2-methoxyethyl)azetidin-3-yl)-2H-indazol-3-yl)methoxy)phenyl)acetic acid], for which the pIC50 was above 6.00.
The value for `CC(C)CCN1CC(n2nc3ccc(-c4cccc5c(N)nccc45)cc3c2COc2ccccc2CC(=O)O)C1` [Compound 121c, 2-(2-((5-(1-aminoisoquinolin-5-yl)-2-(1-isopentylazetidin-3-yl)-2H-indazol-3-yl)methoxy)phenyl)acetic acid] was above 6.00.
Consider `COCCN1CC(n2nc3ccc(-c4ccc5ccnc(N)c5c4)cc3c2COc2ccccc2CC(=O)O)C1` [Compound 122b, 2-(2-((5-(1-aminoisoquinolin-7-yl)-2-(1-(2-methoxyethyl)azetidin-3-yl)-2H-indazol-3-yl)methoxy)phenyl)acetic acid], for which the pIC50 was 5.00 to 6.00.
In the case of `Nc1nccc2c(-c3ccc4nn(C5CN(CCO)C5)c(COc5ccccc5CC(=O)O)c4c3)cccc12` [Compound 123b, 2-(2-((5-(1-aminoisoquinolin-5-yl)-2-(1-(2-hydroxyethyl)azetidin-3-yl)-2H-indazol-3-yl)methoxy)phenyl)acetic acid], the pIC50 is 5.00 to 6.00.
Next, `CC(C)CCN1CC(n2nc3ccc(-c4ccc5ccnc(N)c5c4)cc3c2COc2ccccc2CC(=O)O)C1` [Compound 124b, 2-(2-((5-(1-aminoisoquinolin-7-yl)-2-(1-isopentylazetidin-3-yl)-2H-indazol-3-yl)methoxy)phenyl)acetic acid]: 5.00 to 6.00; `CC(C)(C)OC(=O)N1CC(n2nc3ccc(-c4cccc5c(N)nccc45)cc3c2COc2ccccc2CC(=O)O)C1` [Compound 125b, 2-(2-((5-(1-aminoisoquinolin-5-yl)-2-(1-(tert-butoxycarbonyl)azetidin-3-yl)-2H-indazol-3-yl)methoxy)phenyl)acetic acid]: above 6.00; `CCOC(=O)N1CC(n2nc3ccc(-c4cccc5c(N)nccc45)cc3c2COc2ccccc2CC(=O)O)C1` [Compound 126c, 2-(2-((5-(1-aminoisoquinolin-5-yl)-2-(1-(ethoxycarbonyl)azetidin-3-yl)-2H-indazol-3-yl)methoxy)phenyl)acetic acid]: 5.00 to 6.00.
Next, `CCOC(=O)N1CC(n2nc3ccc(-c4ccc5ccnc(N)c5c4)cc3c2COc2ccccc2CC(=O)O)C1` [Compound 127b, 2-(2-((5-(1-aminoisoquinolin-7-yl)-2-(1-(ethoxycarbonyl)azetidin-3-yl)-2H-indazol-3-yl)methoxy)phenyl)acetic acid]: 5.00 to 6.00; `CCC(=O)N1CC(n2nc3ccc(-c4ccc5ccnc(N)c5c4)cc3c2COc2ccccc2CC(=O)O)C1` [Compound 128c, 2-(2-((5-(1-aminoisoquinolin-7-yl)-2-(1-propionylazetidin-3-yl)-2H-indazol-3-yl)methoxy)phenyl)acetic acid]: 5.00 to 6.00; `CCC(=O)N1CC(n2nc3ccc(-c4cccc5c(N)nccc45)cc3c2COc2ccccc2CC(=O)O)C1` [Compound 129b, 2-(2-((5-(1-aminoisoquinolin-5-yl)-2-(1-propionylazetidin-3-yl)-2H-indazol-3-yl)methoxy)phenyl)acetic acid]: 5.00 to 6.00.
Regarding `CCS(=O)(=O)N1CC(n2nc3ccc(-c4cccc5c(N)nccc45)cc3c2COc2ccccc2CC(=O)O)C1` [Compound 130c, 2-(2-((5-(1-aminoisoquinolin-5-yl)-2-(1-(ethylsulfonyl)azetidin-3-yl)-2H-indazol-3-yl)methoxy)phenyl)acetic acid], the pIC50 was above 6.00.
Turning to `CC(C)CCN1CCC(n2nc3ccc(-c4ccc5ccnc(N)c5c4)cc3c2COc2ccccc2CC(=O)O)CC1` [Compound 131h, 2-(2-((5-(1-aminoisoquinolin-7-yl)-2-(1-isopentylpiperidin-4-yl)-2H-indazol-3-yl)methoxy)phenyl)acetic acid], the pIC50 was above 6.00.
The value for `CC(C)CCN1CCC(n2nc3ccc(-c4cccc5c(N)nccc45)cc3c2COc2ccccc2CC(=O)O)CC1` [Compound 132b, 2-(2-((5-(1-aminoisoquinolin-5-yl)-2-(1-isopentylpiperidin-4-yl)-2H-indazol-3-yl)methoxy)phenyl)acetic acid] was above 6.00.
With `CCS(=O)(=O)N1CC(n2nc3ccc(-c4ccc5ccnc(N)c5c4)cc3c2COc2ccccc2CC(=O)O)C1` [Compound 133b, 2-(2-((5-(1-aminoisoquinolin-7-yl)-2-(1-(ethylsulfonyl)azetidin-3-yl)-2H-indazol-3-yl)methoxy)phenyl)acetic acid], the pIC50 is below 5.00.
Turning to `COCCN1CCC(n2nc3ccc(-c4cccc5c(N)nccc45)cc3c2COc2ccccc2CC(=O)O)CC1` [Compound 134c, 2-(2-((5-(1-aminoisoquinolin-5-yl)-2-(1-(2-methoxyethyl)piperidin-4-yl)-2H-indazol-3-yl)methoxy)phenyl)acetic acid], the pIC50 was above 6.00.
The value for `CC(C)(C)OC(=O)NC1CC(n2nc3ccc(-c4cccc5c(N)nccc45)cc3c2COc2ccccc2CC(=O)O)C1` (stereo not shown) [Compound 135f, 2-(2-((5-(1-aminoisoquinolin-5-yl)-2-(3-(tert-butoxycarbonylamino)cyclobutyl)-2H-indazol-3-yl)methoxy)phenyl)acetic acid] was above 6.00; that for `Nc1nccc2c(-c3ccc4nn(C5CC(N)C5)c(COc5ccccc5CC(=O)O)c4c3)cccc12` (stereo not shown) [Compound 136b, 2-(2-((2-(3-aminocyclobutyl)-5-(1-aminoisoquinolin-5-yl)-2H-indazol-3-yl)methoxy)phenyl)acetic acid] was 5.00 to 6.00; that for `CC(C)(C)OC(=O)NC1CC(n2nc3ccc(-c4ccc5ccnc(N)c5c4)cc3c2COc2ccccc2CC(=O)O)C1` (stereo not shown) [Compound 137b, 2-(2-((5-(1-aminoisoquinolin-7-yl)-2-(3-(tert-butoxycarbonylamino)cyclobutyl)-2H-indazol-3-yl)methoxy)phenyl)acetic acid] was 5.00 to 6.00.
`Nc1nccc2ccc(-c3ccc4nn(C5CC(N)C5)c(COc5ccccc5CC(=O)O)c4c3)cc12` (stereo not shown) [Compound 138b, 2-(2-((2-(3-aminocyclobutyl)-5-(1-aminoisoquinolin-7-yl)-2H-indazol-3-yl)methoxy)phenyl)acetic acid]: the pIC50 was 5.00 to 6.00.
The value for `CC(C)(C)OC(=O)N1CC(Cn2nc3ccc(-c4cccc5c(N)nccc45)cc3c2COc2ccccc2CC(=O)O)C1` [Compound 139f, 2-(2-((5-(1-aminoisoquinolin-5-yl)-2-((1-(tert-butoxycarbonyl)azetidin-3-yl)methyl)-2H-indazol-3-yl)methoxy)phenyl)acetic acid] was above 6.00; that for `Nc1nccc2c(-c3ccc4nn(CC5CNC5)c(COc5ccccc5CC(=O)O)c4c3)cccc12` [Compound 140b, 2-(2-((5-(1-aminoisoquinolin-5-yl)-2-(azetidin-3-ylmethyl)-2H-indazol-3-yl)methoxy)phenyl)acetic acid] was 5.00 to 6.00.
For `CC(C)(C)OC(=O)N1CC(Cn2nc3ccc(-c4ccc5ccnc(N)c5c4)cc3c2COc2ccccc2CC(=O)O)C1` [Compound 141b, 2-(2-((5-(1-aminoisoquinolin-7-yl)-2-((1-(tert-butoxycarbonyl)azetidin-3-yl)methyl)-2H-indazol-3-yl)methoxy)phenyl)acetic acid], the pIC50 is 5.00 to 6.00.
Turning to `CC(C)(C)OC(=O)N1CC(n2nc(COc3ccccc3CC(=O)O)c3cc(-c4cccc5c(N)nccc45)ccc32)C1` [Compound 142b, 2-(2-((5-(1-aminoisoquinolin-5-yl)-1-(1-(tert-butoxycarbonyl)azetidin-3-yl)-1H-indazol-3-yl)methoxy)phenyl)acetic acid], the pIC50 was above 6.00.
For the molecule `COCCN1CC(n2nc(COc3ccccc3CC(=O)O)c3cc(-c4cccc5c(N)nccc45)ccc32)C1` [Compound 143d, 2-(2-((5-(1-aminoisoquinolin-5-yl)-1-(1-(2-methoxyethyl)azetidin-3-yl)-1H-indazol-3-yl)methoxy)phenyl)acetic acid], the pIC50 is above 6.00.
Take `CC(C)CCN1CC(n2nc(COc3ccccc3CC(=O)O)c3cc(-c4cccc5c(N)nccc45)ccc32)C1` [Compound 144c, 2-(2-((5-(1-aminoisoquinolin-5-yl)-1-(1-isopentylazetidin-3-yl)-1H-indazol-3-yl)methoxy)phenyl)acetic acid]: the negative logarithm of the IC50 (pIC50) was above 6.00.
On to `COCCN1CC(n2nc(COc3ccccc3CC(=O)O)c3cc(-c4ccc5ccnc(N)c5c4)ccc32)C1` [Compound 145b, 2-(2-((5-(1-aminoisoquinolin-7-yl)-1-(1-(2-methoxyethyl)azetidin-3-yl)-1H-indazol-3-yl)methoxy)phenyl)acetic acid], for which the pIC50 is above 6.00.
In the case of `CC(C)CCN1CC(n2nc(COc3ccccc3CC(=O)O)c3cc(-c4ccc5ccnc(N)c5c4)ccc32)C1` [Compound 146b, 2-(2-((5-(1-aminoisoquinolin-7-yl)-1-(1-isopentylazetidin-3-yl)-1H-indazol-3-yl)methoxy)phenyl)acetic acid], the pIC50 was above 6.00.
